Tests used:
naïve T cells = assay type: cell-based, Human
[1] = system: Mouse splenic T cells activated by plate bound anti-CD3 antibody; details: cited from earlier work
vEL/tk = assay type: cell-based, vaccinia virus
v7.5/tk = assay type: cell-based, vaccinia virus
vaccinia WR = assay type: cell-based, vaccinia virus

In the case of `Cn1cc(C2=C(c3cn(CCCN)c4ccccc34)C(=O)NC2=O)c2ccccc21` [Bis VIII, Bisindolylmaleimide VIII], the “Killing of the total number of T cells” value (naïve T cells) is given as 95% and the T cell death [1] is given as roughly 100%.

For `O=c1[nH]c(=O)n([C@H]2C[C@H](O)[C@@H](CO)O2)cc1Br` [bromodeoxyuridine], the “Concentration sufficient to inhibit plaque formation” value (vEL/tk) was 125 mM, the Plaque formation (vEL/tk) was “an equal number of plaques, albeit much smaller in size” and the “Concentration sufficient to inhibit plaque formation” value (v7.5/tk) was 125 mM. For the same compound, the “Concentration sufficient to interfere with the ability to plaque” value (vaccinia WR) was 25 mM and the “Viability of the cells” value (Hutk^− cell line) was “does not interfere with the viability of the cells”.

Source: patent publication US7067251B2 (priority 2000, dated 2006)
